Patent publication US8916604B2, “Compositions and methods for epigenetic modification of nucleic acid sequences” (Rutgers, The State University of New Jersey, priority 2011, dated 2014)

Key:
[1] = test system: first 5 CpGs in the promoter region of Nrf2 gene; test: Bisulfite genomic sequencing of TRAMP C1 cells; assay type: cell-based, mouse; details: 5 days, untreated control 96.8%
Protocol: The DIM used in the study contains approximately 98% of DIM purchased from Sigma-Aldrich t St. Louis, Mo., USA), TRAMP C1 cells (provided by Dr. Barbara Foster, Department of Pharmacology and Therapeutics, Roswell Park Cancer institute, Buffalo. NY), originally derived from TRAMP prostate tumor, were cultured in Dulbecco's Modified Eagle's Medium (Invitrogen Corp., Carlsbad, Calif. U.S.A.) supplemented with 10% (V/V) fetal bovine serum (FBS) (Invitrogen Corp., Grand Island, N.Y., U.S.A.), penicillin 100 U/ml, and streptomycin 100 μg/ml (Invitrogen Corp., Grand Island, N.Y., U.S.A.), Cells were maintained in a humidified incubator with 5% CO2 at 37° C. Cells were seeded in 10 cm plates for 24 h and then treated with 0.1% DMSO (control) or different concentrations of DIM in 1% FBS containing medium for 5 days. The medium was changed every 2 days (20),
Genomic DNA was isolated from the control or DIM treated TRAMP C1 cells and TRAMP dorso-lateral prostate tissues collected from control and DIM treated groups pooled and homogenized using the DNeasy tissue kit (Qiagen, Valencia, Calif., U.S.A.). The genomic DNAs were extracted and subjected to bisulfite conversion carried out using 750 ng of genomic DNA and applying to EZ DNA Methylation Gold Kits (Zymo Research Corp., Orange, Calif., U.S.A.) following the manufacturer's instructions. […]

[2] = test system: 5-methylcytosine (5-MC); test: IHC staining of TRAMP prostate tissue, global CpG methylation; assay type: in vivo, mouse; details: D-G1 and D-G2, p<0.001
Protocol: Sections (4 μm) were cut from the paraffin embedded prostate tissue and mounted on glass slides. The slides Were deparafinized in xylene and antigen unmasking was performed by applying proteinase K digestion directly on the slides for 15 min. Endogenous peroxidase was blocked by incubating in 3% […] for 5 min, and ApopTag Plus Peroxidase In Situ Apoptosis Detection Kit (Millipore, Temecula, Calif., U.S.A.) was used to detect apoptotic cells. For detection of proliferative cells, monoclonal mouse anti-proliferating cell nuclear antigen (PCNA) antibody (Clone PC10, 1:50, Dako North America, Carpinteria, Calif., U.S.A.) was used (12). The staining was performed following as the manufacturer's protocols. Anti-5-methylcytosine (5-MC) mouse monoclone antibody (Clone 162 33 D3, 1:50, EMD Chemicals, Philadelphia, Pa., U.S.A.) was used to detect genome-wide methylated DNA. […] Quantitation of IHC staining was done using the Aperio ScanScope® GL system according to the manufactures protocol (Aperio Technologies Inc., Vista, Calif., U.S.A.). […] The Aperio ImageScopoe software (v 10.1.3.2028) allowed the unbiased quantification and quantitative analysis of the IHC staining of biomarkers of prostate tumor samples obtained from untreated control versus the treated TRAMP mice.

In the case of c1ccc2c(Cc3c[nH]c4ccccc34)c[nH]c2c1 [DIM, 3,3′-diindolylmethane], the “methylation of the first 5 CpGs of Nrf2 promoter” value ([1]; 2.5 μM) is reported as 73.7%, the “methylation of the first 5 CpGs of Nrf2 promoter” value ([1]; 5 μM) is reported as 55.8% and the “5-MC IHC staining of the prostate tissue” value [2] is reported as “significantly decreased”.
